Data set [1] deals with T1, Muscarinic acetylcholine receptor M4 (Homo sapiens) (UniProt P08173).
T1 sequence (whole entry): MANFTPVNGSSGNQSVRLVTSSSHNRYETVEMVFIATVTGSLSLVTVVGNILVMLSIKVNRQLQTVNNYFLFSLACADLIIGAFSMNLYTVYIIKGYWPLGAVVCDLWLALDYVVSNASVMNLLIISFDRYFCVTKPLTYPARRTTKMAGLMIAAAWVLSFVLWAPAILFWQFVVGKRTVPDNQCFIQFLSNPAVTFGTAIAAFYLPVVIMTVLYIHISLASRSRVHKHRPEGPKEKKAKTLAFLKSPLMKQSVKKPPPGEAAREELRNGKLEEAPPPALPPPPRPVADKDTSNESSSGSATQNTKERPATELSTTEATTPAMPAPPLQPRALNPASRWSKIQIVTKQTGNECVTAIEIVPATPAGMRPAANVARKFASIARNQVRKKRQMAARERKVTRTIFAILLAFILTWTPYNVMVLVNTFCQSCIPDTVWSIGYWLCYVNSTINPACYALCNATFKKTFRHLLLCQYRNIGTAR
As to the kind of experiment: Agonist activity at muscarinic M4 receptor (unknown origin) at 0.3 uM by calcium mobilization assay. In kind it is functional.

Data set [2] is described as follows: Lipophilicity, log P of the compound. In kind it is physicochemical. Conditions: octanol/water.
The target of data set [3] is T2, Muscarinic acetylcholine receptor M5 (Homo sapiens) (UniProt P08912).
T2 sequence (whole entry): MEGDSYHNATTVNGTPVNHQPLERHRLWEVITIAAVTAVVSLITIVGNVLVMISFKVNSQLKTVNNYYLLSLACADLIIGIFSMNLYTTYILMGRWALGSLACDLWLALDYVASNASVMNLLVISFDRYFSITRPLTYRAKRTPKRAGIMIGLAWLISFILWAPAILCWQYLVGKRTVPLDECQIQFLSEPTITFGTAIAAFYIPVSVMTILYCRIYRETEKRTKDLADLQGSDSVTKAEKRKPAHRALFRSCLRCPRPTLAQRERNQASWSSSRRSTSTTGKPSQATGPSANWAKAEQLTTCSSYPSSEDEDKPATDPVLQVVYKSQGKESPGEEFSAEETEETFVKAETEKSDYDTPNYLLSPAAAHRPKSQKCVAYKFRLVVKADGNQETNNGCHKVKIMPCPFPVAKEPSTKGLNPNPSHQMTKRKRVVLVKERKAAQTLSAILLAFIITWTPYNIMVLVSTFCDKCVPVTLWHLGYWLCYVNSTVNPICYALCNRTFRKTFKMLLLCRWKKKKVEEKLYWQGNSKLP
The experiment in a line: Agonist activity at muscarinic M5 receptor (unknown origin) at 10 uM by calcium mobilization assay. In kind it is functional. On the technique in general: Calcium flux is commonly read through the fluorescence of an indicator in the cells.

Data set [4] concerns the target Voltage-gated inwardly rectifying potassium channel KCNH2 (Homo sapiens, UniProt Q12809). The experiment in a line: Inhibition of human ERG channel.
The target in data set [5] is T3, Muscarinic acetylcholine receptor M1 (Homo sapiens) (UniProt P11229).
T3 sequence (whole entry): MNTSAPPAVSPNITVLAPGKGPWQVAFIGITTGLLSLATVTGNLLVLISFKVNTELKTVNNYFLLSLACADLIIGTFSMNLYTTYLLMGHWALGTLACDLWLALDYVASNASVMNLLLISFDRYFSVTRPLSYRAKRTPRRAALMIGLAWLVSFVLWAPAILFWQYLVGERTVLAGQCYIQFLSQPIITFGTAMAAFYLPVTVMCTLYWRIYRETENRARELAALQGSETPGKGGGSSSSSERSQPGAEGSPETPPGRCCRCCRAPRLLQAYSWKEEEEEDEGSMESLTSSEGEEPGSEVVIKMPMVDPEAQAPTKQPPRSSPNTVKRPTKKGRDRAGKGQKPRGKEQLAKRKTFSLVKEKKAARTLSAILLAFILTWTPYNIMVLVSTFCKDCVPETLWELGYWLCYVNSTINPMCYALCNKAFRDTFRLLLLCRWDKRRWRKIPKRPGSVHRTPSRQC
As to the kind of experiment: Agonist activity at muscarinic M1 receptor (unknown origin) at 0.3 uM by calcium mobilization assay. In kind it is functional.

Data set [6] deals with T4, Muscarinic acetylcholine receptor M2 (Homo sapiens) (UniProt P08172).
T4 sequence (whole entry): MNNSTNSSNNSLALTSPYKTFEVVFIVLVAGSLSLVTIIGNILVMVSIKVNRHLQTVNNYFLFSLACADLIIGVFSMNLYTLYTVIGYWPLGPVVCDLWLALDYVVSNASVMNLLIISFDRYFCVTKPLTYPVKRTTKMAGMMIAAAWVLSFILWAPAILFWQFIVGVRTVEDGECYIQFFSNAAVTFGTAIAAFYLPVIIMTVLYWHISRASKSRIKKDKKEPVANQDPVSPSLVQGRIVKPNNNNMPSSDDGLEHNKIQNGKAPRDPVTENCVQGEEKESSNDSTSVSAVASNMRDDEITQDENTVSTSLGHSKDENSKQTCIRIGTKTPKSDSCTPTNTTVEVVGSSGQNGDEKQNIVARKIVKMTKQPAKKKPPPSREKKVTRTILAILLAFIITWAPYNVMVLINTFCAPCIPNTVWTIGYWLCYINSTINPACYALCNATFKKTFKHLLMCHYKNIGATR
The experiment in a line: Agonist activity at muscarinic M2 receptor (unknown origin) at 0.3 uM by calcium mobilization assay. In kind it is functional.

The target in data set [7] is Muscarinic acetylcholine receptor M3 (Homo sapiens) (UniProt P20309). As to the kind of experiment: Agonist activity at muscarinic M3 receptor (unknown origin) at 0.3 uM by calcium mobilization assay. In kind it is functional.
The nature of data set [8]: Clearance in rat at 0.25 mg/kg, iv and 2.5 mg/kg, po. The data set is classed as ADME, organism-based. Conditions: in vivo.
Data set [9] concerns the target T3, Muscarinic acetylcholine receptor M1 (Homo sapiens). The experiment in a line: Agonist activity at muscarinic M1 receptor (unknown origin) at 1 uM by calcium mobilization assay. In kind it is functional.
In data set [10] the target is Muscarinic acetylcholine receptor M3 (Homo sapiens) (UniProt P20309). The experiment in a line: Agonist activity at muscarinic M3 receptor (unknown origin) at 1 uM by calcium mobilization assay. The data set is classed as functional.
The target in data set [11] is T4, Muscarinic acetylcholine receptor M2 (Homo sapiens). As to the kind of experiment: Agonist activity at muscarinic M2 receptor (unknown origin) at 1 uM by calcium mobilization assay. In kind it is functional.
Data set [12] concerns the target T1, Muscarinic acetylcholine receptor M4 (Homo sapiens). The experiment in a line: Agonist activity at muscarinic M4 receptor (unknown origin) at 1 uM by calcium mobilization assay. The data set is classed as functional.
Data set [13] can be described thus: Oral bioavailability in rat at 2.5 mg/kg. The data set is classed as ADME, organism-based. Conditions: in vivo.

Molecules are shown by their SMILES.

Chain of Voltage-gated inwardly rectifying potassium channel KCNH2 (Q12809 whole entry): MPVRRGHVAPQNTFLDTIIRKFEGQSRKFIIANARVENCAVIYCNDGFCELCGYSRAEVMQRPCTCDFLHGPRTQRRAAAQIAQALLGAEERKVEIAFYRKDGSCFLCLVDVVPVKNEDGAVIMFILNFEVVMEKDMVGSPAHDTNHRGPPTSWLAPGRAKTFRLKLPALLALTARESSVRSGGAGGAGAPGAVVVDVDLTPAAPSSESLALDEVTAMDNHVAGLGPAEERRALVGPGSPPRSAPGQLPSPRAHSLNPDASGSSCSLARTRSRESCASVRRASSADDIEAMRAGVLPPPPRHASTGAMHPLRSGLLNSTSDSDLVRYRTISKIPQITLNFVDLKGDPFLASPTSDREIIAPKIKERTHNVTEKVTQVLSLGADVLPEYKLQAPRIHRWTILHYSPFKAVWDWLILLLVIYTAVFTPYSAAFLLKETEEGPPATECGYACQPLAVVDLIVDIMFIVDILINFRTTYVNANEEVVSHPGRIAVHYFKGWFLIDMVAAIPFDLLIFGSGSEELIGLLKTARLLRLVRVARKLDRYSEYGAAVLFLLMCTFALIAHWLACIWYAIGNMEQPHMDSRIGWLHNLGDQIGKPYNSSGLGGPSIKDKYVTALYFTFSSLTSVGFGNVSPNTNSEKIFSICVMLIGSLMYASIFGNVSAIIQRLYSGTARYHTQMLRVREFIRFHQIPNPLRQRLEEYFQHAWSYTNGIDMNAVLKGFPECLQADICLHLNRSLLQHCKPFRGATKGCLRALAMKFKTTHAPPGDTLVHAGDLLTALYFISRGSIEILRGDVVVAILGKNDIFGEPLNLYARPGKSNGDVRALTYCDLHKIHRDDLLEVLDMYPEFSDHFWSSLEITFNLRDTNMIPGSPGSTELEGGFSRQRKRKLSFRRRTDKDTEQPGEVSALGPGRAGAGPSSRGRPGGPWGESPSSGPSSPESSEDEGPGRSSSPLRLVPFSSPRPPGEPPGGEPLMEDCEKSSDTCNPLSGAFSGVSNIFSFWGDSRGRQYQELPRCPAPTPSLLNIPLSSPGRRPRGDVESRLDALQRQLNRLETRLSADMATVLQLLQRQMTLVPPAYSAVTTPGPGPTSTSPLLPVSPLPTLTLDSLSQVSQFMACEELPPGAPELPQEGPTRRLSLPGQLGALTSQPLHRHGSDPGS
Chain of Muscarinic acetylcholine receptor M3 (Homo sapiens) (P20309 whole entry, looked up): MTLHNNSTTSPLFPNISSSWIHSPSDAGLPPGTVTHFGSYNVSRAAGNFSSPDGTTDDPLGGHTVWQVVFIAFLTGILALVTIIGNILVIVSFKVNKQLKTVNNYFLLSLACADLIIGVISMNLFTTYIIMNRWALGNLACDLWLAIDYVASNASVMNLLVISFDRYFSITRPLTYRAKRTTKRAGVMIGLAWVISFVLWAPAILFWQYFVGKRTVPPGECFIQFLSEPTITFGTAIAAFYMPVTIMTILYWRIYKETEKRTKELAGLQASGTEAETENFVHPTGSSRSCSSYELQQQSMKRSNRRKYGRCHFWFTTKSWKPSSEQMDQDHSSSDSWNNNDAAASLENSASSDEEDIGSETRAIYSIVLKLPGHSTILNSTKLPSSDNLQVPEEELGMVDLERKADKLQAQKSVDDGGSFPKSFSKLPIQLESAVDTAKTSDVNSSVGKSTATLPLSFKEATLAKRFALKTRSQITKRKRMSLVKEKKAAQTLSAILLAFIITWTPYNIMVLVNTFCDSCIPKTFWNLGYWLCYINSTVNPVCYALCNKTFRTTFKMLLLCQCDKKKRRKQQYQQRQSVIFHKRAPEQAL

For `CCOC(=O)N1CCC(CN2CCC3(CC2)CN(C(=O)N2CCC2)c2ncccc23)CC1`, the Activity in data set [1] was found to be 29%.

Usually logP stands for the decadic logarithm of the partition coefficient of the neutral form, usually between octanol and water. A high value points to a more lipophilic compound. For orientation: IC50 means the midpoint of a concentration-inhibition curve. High values mean a need for much substance, low ones inhibition by little substance. In [2], `CCOC(=O)N1CCC(CN2CCC3(CC2)CN(C(=O)NC)c2ncccc23)CC1` displayed a logP of 2.5. Besides, the Activity is 98% in data set [1]; 17% in data set [3]; 74% in data set [5]; 7% in [6]; 8% in data set [7]. Moreover, the midpoint of inhibition in [4], the IC50, lay at 0.3 µM.

`CCOC(=O)N1CCC(CN2CCC3(CC2)OC(=O)N(C)c2ncccc23)CC1` registered a clearance in data set [8] of 4.3 L/h/kg.

As for `CCOC(=O)N1CCC(CN2CCC3(CC2)CN(C(N)=O)c2ncccc23)CC1`, the logP in [2] was determined as 2. For the same molecule, the Activity in data set [1] came to 103%; in data set [3] it was 8%; in data set [5] it was 99%; in data set [6] it was 17%; in data set [7] it was 11%.

As for `CCNC(=O)N1CC2(CCN(CC3CCN(C(=O)OCC)CC3)CC2)c2cccnc21`, the Activity in [9] is 55%; in [3], 11%; in [10], 5%; in data set [11], 13%; in data set [12] it was 77%. Besides, the IC50 in data set [4] stood at 0.23 µM.

Take `CCOC(=O)N1CCC(CN2CCC3(CC2)CN(C(=O)N2CCCC2)c2ncccc23)CC1`: in data set [1], the Activity was 10%.

One may read the bioavailability as the share of a dose that reaches the circulation, judged against a reference dose that is usually intravenous. Lower therefore signals little systemic uptake. With `CCOC(=O)N1CCC(CN2CCC3(CC2)CC(=O)N(CC)c2ncccc23)CC1`, the Activity in data set [9] was 91%; in data set [3], 3%; in data set [10], 2%; in [11] it was 20%; in data set [12] it was 134%. For the same molecule, the bioavailability in [13] is 2.6%. The molecule further came in with a clearance in [8] of 2.96 L/h/kg.

In the case of `CCOC(=O)N1CCC(CN2CCC3(CC2)CN(CC)c2ncccc23)CC1`, the Activity in data set [9] was 34%; in data set [3] it was 17%; in data set [10], 6%; in data set [11], 14%; in data set [12], 58%.

As for `CCOC(=O)N1CCC(CN2CCC3(CC2)CN(S(C)(=O)=O)c2ncccc23)CC1`, the Activity was 88% in data set [1]; 3% in data set [3]; 20% in [5]; 12% in data set [6]; 7% in [7].

As for `CCOC(=O)N1CCC(CN2CCC3(CC2)CN(C(=O)N(CC)CC)c2ncccc23)CC1`, the Activity in data set [9] is 52%; in [3] it was 9%; in [10], 4%; in data set [11], 23%; in [12], 132%. Besides, the IC50 in data set [4] amounted to 2.54 µM.

Take `CCOC(=O)N1CCC(CN2CCC3(CC2)OC(=O)Nc2ncccc23)CC1`: in data set [8], the clearance is 1.05 L/h/kg.

Turning to `CCOC(=O)N1CCC(CN2CCC3(CC2)CN(C(=O)OC)c2ncccc23)CC1`, the Activity in data set [12] stood at 7%.
